Experimental data: patent US20250268953A1, “COMPOSITIONS AND METHODS FOR TREATING DISEASE II” (MICROBA IP PTY LTD, priority 2021, published 2025)
“Also recorded” adds a separate entry of the source.

Legend:
[1] = tested on: DSS treated C57Bl/6 mice; experiment: Acute model of DSS induced murine colitis (gut barrier dysfunction); assay type: in vivo; settings: 3% DSS six days; for DSS induced weight loss / epithelial injury / pathology / histopathological healing (histopathological score): vs DSS+vehicle
[2] = tested on: IL-6-mediated activation of STAT3; experiment: HEK-Blue IL-6 reporter cell line, STAT3-responsive SEAP reporter; assay type: cell-based, human; settings: control Janus kinase inhibitor at 10 μM; IL-6 2 ng/mL, 24 hours
Experimental: STAT3 activity was assessed using the HEK Blue IL-6 cell line (Invivogen). Briefly, 50,000 cells per well were seeded in triplicate in a 96-well plate 24 hours prior to the start of the assay. Bacteria supernatant or sterile bacterial medium were added to the cells at a final concentration of 10% v/v for a 60-minute pretreatment. Then recombinant human IL 6 (R&D systems) was added at a final concentration of 2 ng/mL and the cells were incubated at 37° C. for 24 hours. The ability of the supernatants to suppress IL-6 mediated STAT3 activation was compared to the Janus kinase inhibitor tofacitinib (10 μM). After 24 hours, the STAT3 regulated SEAP reporter activity was assessed using Quanti Blue solution as recommended by the manufacturer (Invivogen). Results are the average of three independent experiments. Cytotoxicity was assessed using the CellTiter-Glo® 2.0 Cell Viability Assay (Promega, Australia) as recommended by the manufacturer.

[3] = tested on: IL-23-mediated activation of STAT3; experiment: HEK-Blue IL-23 reporter cell line, STAT3 inducible SEAP reporter; assay type: cell-based, human; settings: control Janus kinase inhibitor at 10 μM; rhIL-23 5 ng/mL, 6 hours
Experimental: Then, each seed culture broth was used to inoculate two technical replicates each generating six technical replicates from three biological replicates. The technical replicates were grown until early stationary phase and then cell free culture supernatant was harvested as previously described (Giri et al., 2019). Culture supernatants were size fractionated by passing through a 3 kDa CENTRICON® column according to the manufacturer's (Merck Millipore) instructions. To prepare A. shahii MH21-6 supernatant samples for assay, a seed culture was established from a single colony and grown until early stationary phase. Then, the seed culture broth was used to inoculate two technical replicates. […]
STAT3 activity was assessed using the HEK Blue IL-23 cell line (Invivogen). […] STAT3 regulated SEAP reporter activity was assessed using Quanti Blue solution as recommended by the manufacturer (Invivogen). […] Cytotoxicity was assessed using an MTT assay. […] Cytotoxicity was assessed by measuring absorbance at 540 nm as recommended by the manufacturer (Invitrogen, Thermo Fisher, Australia). […]
STAT3 activity was assessed using the HEK Blue IL-23 cell line (Invivogen). […] STAT3 regulated SEAP reporter activity was assessed using Quanti Blue solution as recommended by the manufacturer (Invivogen). […] Cytotoxicity was assessed using MTT assay. […]

[4] = Example 3 (G. formicilis) study

| SMILES | DSS induced weight loss ([1]; Example 1 (A. shahii) study, daily treatment) | goblet cells ([1]; Example 1 (A. shahii) study, relative to vehicle treated control) | epithelial injury ([1]; Example 1 (A. shahii) study) | pathology / histopathological healing (histopathological score) ([1]; Example 1 (A. shahii) study) | epithelial injury ([1]; Example 2 (C. sana) study) | pathology / histopathological healing (histopathological score) ([1]; Example 2 (C. sana) study) | DSS induced weight loss [1, 4] | epithelial injury [1, 4] | pathology / histopathological healing (histopathological score) [1, 4] | IL-6 mediated activation of STAT3 [2] | IL-23 mediated activation of STAT3 (SEAP expression) [3] |
| --- | --- | --- | --- | --- | --- | --- | --- | --- | --- | --- | --- |
| C[C@]12C=CC(=O)C=C1CC[C@@H]1[C@@H]2C(=O)C[C@@]2(C)[C@H]1CC[C@]2(O)C(=O)CO [prednisone] | exacerbated the DSS induced weight loss | ameliorated | ameliorated | significant improvement in disease pathology | Neither prednisone nor F. prausnitzii A2-165 had a significant impact | Neither prednisone nor F. prausnitzii A2-165 had a significant impact | exacerbated the DSS induced weight loss | ameliorated | significant improvement in disease pathology |  |  |
| C[C@@H]1CCN(C(=O)CC#N)C[C@@H]1N(C)c1ncnc2[nH]ccc12 [tofacitinib] |  |  |  |  |  |  |  |  |  | fully prevented | could be prevented; also recorded: inhibited IL-23 mediated SEAP expression |
